PubChem BioAssay AID1918944 (Molecular Pharmacology Branch, DTP, NCI, 2023)
pIC50: −log10 of the molar value. Values joined by “and” are separate entries in the source; they are usually repeats but may differ in a detail not shown here. Identical values can stand only once. Values belong to the compound of their own block, whether it stands above or below them.

Tested on: 786-0 complex spheroid viability
Assay: Anticancer human tumor 786-0 cell line growth inhibition;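 further: spheroids exposed to agents for seven days before readout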
Conditions: for viability, T/C: stronger effect = lower value
Description: Multicellular complex tumor spheroid response to LSD1 Inhibitor Iadademstat in combination with a variety of drugs and investigational agents in selected tumor cell lines
The current study was undertaken to assess response to LSD1 inhibitors in combination with standard-of-care drugs and investigational agents in solid tumor complex spheroid models as well as in the K-562 leukemia. Complex spheroids include a stromal component modeled by human endothelial cells (HUVEC) and fibroblasts modeled by human mesenchymal stem cells (MSCs). The concentration ranges selected for each drug and investigational agent were based upon clinically achievable concentrations if the clinical Cmax of the agent was known.
Compounds. The drugs and investigational agents used in this study are listed on Table 1. All of the agents used, including staurosporine (NSC755774) and gemcitabine (NSC613327), were obtained from the Developmental Therapeutics Program, NCI. FDA-approved anticancer drugs are available from the NCI at http://dtp.nci.nih.gov/branches/dscb/oncology_drugset_explanation.html. Drugs and investigational agents were >95% pure by proton nuclear magnetic resonance (NMR) and liquid chromatography/mass spectrometry (LC/MS). Stock solutions were prepared at 400x in DMSO, stored at -70 degrees C, and diluted in fresh medium prior to their use. The final concentration of DMSO in cell culture wells never exceeded 0.25% (v/v). The FDA-approved anticancer drug set is available from the Developmental Therapeutics Program at https://dtp.cancer.gov/organization/dscb/obtaining/available_plates.htm. All drugs and investigational agents were tested over a range starting from a high concentration at or near the clinical Cmax and decreasing in half-log increments. If the clinical Cmax for an agent had not been determined, the highest concentration tested was 10 microM.
Cell Lines. The patient-derived cancer cell (PDC) lines: 292921-168-R-J2-PDC, K24384-001-R-PDC, and 521955-158-R2-J5-PDC pancreatic carcinomas, 556581-035-R-J1 ovarian carcinoma, 324938-238-R-J1-PDC, 855422-203-R-J1-PDC and 883617-216-R-J1-PDC urothelial bladder carcinomas, 743489-274-T-PDC renal cell carcinoma, 138582-R-J1 Merkel cell tumor, K60290-347-R-J1 and K57222-313-R-J1-PDC glioblastomas, 653999-131-R-J2-PDC, LG0703-F948-PDC, and 349418-098-R-PDC non-small cell lung carcinomas, 885512-296-R-J2-PDC, 171881-019-R-J1-PDC breast carcinomas and 186277-243-T-J2-PDC and 233499-124-R-J2-PDC colon carcinomas were obtained from the NCI Patient-Derived Models Repository (PDMR, https://pdmr.cancer.gov). The established cell lines NCI/ADR-RES (RRID:CVCL_14520 and OVCAR-5 (RRID:CVCL_1628) ovarian carcinomas, 786-O (RRID:CVCL_1051) and A498 (RRID:CVCL_A498) renal cell carcinoma, NCI-H211 (ATCC, cat. CRL-5824; RRID:CVCL_1529), NCI-H196 (ATCC, cat. CRL-5823, RRID:CVCL_1509), SW 1271 (ATCC, cat. CRL-2177, RRID:CVCL_1716) and NCI-H1876 (ATCC, cat. CRL-5902, RRID:CVCL_1503) small cell lung carcinomas, MDA-MB-231 (RRID:CVCL_0062) and MDA-MB-468 (RRID:CVCL_0419)breast carcinomas (10-12). Pooled donor human umbilical vein endothelial cells (HUVEC, Lonza, cat. CC-2519) and human mesenchymal stem cells (hMSC, Lonza, cat. PT-2501) were purchased from Lonza (Walkersville, MD).
Cell Culture. All cells were maintained in an incubator at 37 degrees C and 5% CO2 with 95% humidity. The PDC lines were cultured according to standard operating procedures established by the NCI PDMR (https://pdmr.cancer.gov). Briefly all PDCs were thawed and cultured in Matrigel-coated flasks prepared with a working solution of 1X Ham's F-12 nutrient mix, without supplementation (Invitrogen, Waltham, MA, cat. 11765054), 100 U/mL penicillin-streptomycin (Invitrogen, cat. 15140122), and 2.5% Matrigel (Corning Inc., Corning, NY, cat. 354248) for the first three passages. […]

- pIC50 (curve of compound): < 7.00
Structure (SMILES): Cn1ncnc1C1c2n[nH]c(=O)c3cc(F)cc(c23)NC1c1ccc(F)cc1 (stereo unspecified)
- viability, T/C (compound 0.000316 µM): 102% and 101%
- viability, T/C (compound 0.001 µM): 108%
- viability, T/C (compound 0.00316 µM): 98.2% and 97.5%
- viability, T/C (compound 0.01 µM): 98.3% and 97.5%
- viability, T/C (compound 0.0316 µM): 100% and 92.3%
- viability, T/C (compound 0.1 µM): 97.7% and 89.8%

- pIC50 (curve of compound): < 5.00
Structure (SMILES): CC(C)c1c(-c2ccccc2)nc2c(C#N)c[nH]n2c1=O
- viability, T/C (compound 0.0316 µM): 105% and 103%
- viability, T/C (compound 0.1 µM): 108% and 101%
- viability, T/C (compound 0.316 µM): 99% and 105%
- viability, T/C (compound 1 µM): 102% and 105%
- viability, T/C (compound 3.16 µM): 104% and 110%
- viability, T/C (compound 10 µM): 102% and 103%

Structure (SMILES): CC1(C)CCC(CN2CCN(c3ccc(C(=O)NS(=O)(=O)c4ccc(NCC5CCOCC5)c([N+](=O)[O-])c4)c(Oc4cnc5[nH]ccc5c4)c3)CC2)=C(c2ccc(Cl)cc2)C1 + NC1CCC(NC2CC2c2ccccc2)CC1
- pIC50 (curve of first compound, second compound 0.1 µM): < 5.00
- pIC50 (curve of first compound, second compound 0.316 µM): < 5.00
- pIC50 (curve of first compound, second compound 1 µM): < 5.00
- pIC50 (curve of first compound, second compound 3.16 µM): 5.03
- pIC50 (curve of first compound, second compound 10 µM): 5.20
- viability, T/C (second compound 0.1 µM, first compound 0.0316 µM): 113%
- viability, T/C (second compound 0.1 µM, first compound 0.1 µM): 117%
- viability, T/C (second compound 0.1 µM, first compound 0.316 µM): 110%
- viability, T/C (second compound 0.1 µM, first compound 1 µM): 116%
- viability, T/C (second compound 0.1 µM, first compound 3.16 µM): 103%
- viability, T/C (second compound 0.1 µM, first compound 10 µM): 68.1%
- viability, T/C (second compound 0.316 µM, first compound 0.0316 µM): 117%
- viability, T/C (second compound 0.316 µM, first compound 0.1 µM): 121%
- viability, T/C (second compound 0.316 µM, first compound 0.316 µM): 120%
- viability, T/C (second compound 0.316 µM, first compound 1 µM): 120%
- viability, T/C (second compound 0.316 µM, first compound 3.16 µM): 106%
- viability, T/C (second compound 0.316 µM, first compound 10 µM): 67.1%
- viability, T/C (second compound 1 µM, first compound 0.0316 µM): 116%
- viability, T/C (second compound 1 µM, first compound 0.1 µM): 116%
- viability, T/C (second compound 1 µM, first compound 0.316 µM): 118%
- viability, T/C (second compound 1 µM, first compound 1 µM): 108%
- viability, T/C (second compound 1 µM, first compound 3.16 µM): 104%
- viability, T/C (second compound 1 µM, first compound 10 µM): 58.3%
- viability, T/C (second compound 3.16 µM, first compound 0.0316 µM): 110%
- viability, T/C (second compound 3.16 µM, first compound 0.1 µM): 109%
- viability, T/C (second compound 3.16 µM, first compound 0.316 µM): 107%
- viability, T/C (second compound 3.16 µM, first compound 1 µM): 96%
- viability, T/C (second compound 3.16 µM, first compound 3.16 µM): 85.3%
- viability, T/C (second compound 3.16 µM, first compound 10 µM): 47.4%
- viability, T/C (second compound 10 µM, first compound 0.0316 µM): 90.2%
- viability, T/C (second compound 10 µM, first compound 0.1 µM): 94.6%
- viability, T/C (second compound 10 µM, first compound 0.316 µM): 89.3%
- viability, T/C (second compound 10 µM, first compound 1 µM): 74.1%
- viability, T/C (second compound 10 µM, first compound 3.16 µM): 63.2%
- viability, T/C (second compound 10 µM, first compound 10 µM): 41.8%

- pIC50 (curve of compound): < 5.00
Structure (SMILES): CC1(C)CCC(CN2CCN(c3ccc(C(=O)NS(=O)(=O)c4ccc(NCC5CCOCC5)c([N+](=O)[O-])c4)c(Oc4cnc5[nH]ccc5c4)c3)CC2)=C(c2ccc(Cl)cc2)C1
- viability, T/C (compound 0.0316 µM): 102% and 98%
- viability, T/C (compound 0.1 µM): 106% and 105%
- viability, T/C (compound 0.316 µM): 96.9% and 110%
- viability, T/C (compound 1 µM): 97% and 99.1%
- viability, T/C (compound 3.16 µM): 90.1% and 93.2%
- viability, T/C (compound 10 µM): 66.7% and 79.4%
